Source: patent publication US9040509B2, “Method of treating human skin and a skin care composition for use in such a method” (Pantarhei Bioscience B.V., priority 2002, dated 2015)
Read-outs that look alike come from different tables or passages of the source.

What was measured:
human ERα = human ERα (Homo sapiens (Human), UniProt P03372); experiment: Competitive steroid binding assay, recombinant human ERα, [3H]E2 as labeled ligand; details: Cheng and Prusoff from measured IC50
uterus = details: continuous administration from a subcutaneous depot; Martucci et al., 1977; cited from earlier work
[1] = test system: rat uterine nuclear estrogen receptor; details: cited from earlier work
immature rat uterus = details: subcutaneously administered, Holinka et al., cited from earlier work
[2] = test system: human breast cancer cells (MCF-7); details: MCF-7, long term tissue culture; cited from earlier work
[3] = test system: rat uterine cytosol estrogen receptor; details: cited from earlier work
[4] = test system: estrogen receptor in the human endometrium; details: Tseng et al., cited from earlier work
uterine vasodilation = details: intravenously administered; cited from earlier work
[5] = intravenous, two adult women, cited from earlier work
[6] = Elimination half-life after single subcutaneous administration in rats; assay type: in vivo; details: female, Sprague Dawley, rat; single sc dose 0.05, 0.5 or 5 mg/kg in arachidis oil; plasma
Method: To determine the in vivo stability of estetrol (E4) its elimination half-life in female Sprague Dawley rats was determined after a single subcutaneous administration (sc) at several dose levels.
Female Sprague Dawley rats were equipped with a permanent silatic heart catheter, as described by Kuipers et al. (1985, Gastroenterology, 88, 403-411). Rats were allowed to recover from surgery for 5 days and were than administered 0.05, 0.5, or 5 mg/kg E4 in 0.5 ml arachidis oil. E4 was injected in the neck area using a 1 ml syringe and 20 g needle. Blood samples were subsequently collected via the heart catheter in heparinized tubes at 0.5, 1, 2, 4, 8 and 24 hours. Erythrocytes were removed by centrifugation at 5000×g for 10 minutes at 4° C. and blood plasma was stored at −20° C. […] With each sample batch, a calibration curve with 6 calibrators was recorded. The calibration curve was calculated using linear regression (correlation coefficient>0.98), which permitted quantitation of plasma concentrations. […]
Plasma E4 concentration data were analysed with “WinNonLin, edition 3.1” and involved pharmacokinetic parameters for Cmax, AUC0-24 and half-life.

human ERβ = human ERβ (Homo sapiens (Human), UniProt Q92731); experiment: Competitive steroid binding assay, recombinant human ERβ, [3H]E2 as labeled ligand; details: Cheng and Prusoff from measured IC50
Sequence of human ERβ (Q92731 whole entry): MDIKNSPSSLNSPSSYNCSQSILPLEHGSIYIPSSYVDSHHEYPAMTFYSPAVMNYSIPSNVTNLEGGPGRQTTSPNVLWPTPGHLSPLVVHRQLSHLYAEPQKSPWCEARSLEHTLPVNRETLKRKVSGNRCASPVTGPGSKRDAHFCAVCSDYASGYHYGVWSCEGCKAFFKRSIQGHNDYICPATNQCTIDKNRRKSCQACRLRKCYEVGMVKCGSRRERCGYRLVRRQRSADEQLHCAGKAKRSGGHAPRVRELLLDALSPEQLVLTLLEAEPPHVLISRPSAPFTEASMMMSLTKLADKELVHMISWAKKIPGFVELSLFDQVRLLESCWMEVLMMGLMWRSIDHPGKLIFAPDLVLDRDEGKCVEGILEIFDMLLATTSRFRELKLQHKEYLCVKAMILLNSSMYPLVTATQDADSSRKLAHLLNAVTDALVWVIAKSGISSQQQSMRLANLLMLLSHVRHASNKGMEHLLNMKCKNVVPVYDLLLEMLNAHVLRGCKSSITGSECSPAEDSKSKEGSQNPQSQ

Sequence of human ERα (P03372 whole entry): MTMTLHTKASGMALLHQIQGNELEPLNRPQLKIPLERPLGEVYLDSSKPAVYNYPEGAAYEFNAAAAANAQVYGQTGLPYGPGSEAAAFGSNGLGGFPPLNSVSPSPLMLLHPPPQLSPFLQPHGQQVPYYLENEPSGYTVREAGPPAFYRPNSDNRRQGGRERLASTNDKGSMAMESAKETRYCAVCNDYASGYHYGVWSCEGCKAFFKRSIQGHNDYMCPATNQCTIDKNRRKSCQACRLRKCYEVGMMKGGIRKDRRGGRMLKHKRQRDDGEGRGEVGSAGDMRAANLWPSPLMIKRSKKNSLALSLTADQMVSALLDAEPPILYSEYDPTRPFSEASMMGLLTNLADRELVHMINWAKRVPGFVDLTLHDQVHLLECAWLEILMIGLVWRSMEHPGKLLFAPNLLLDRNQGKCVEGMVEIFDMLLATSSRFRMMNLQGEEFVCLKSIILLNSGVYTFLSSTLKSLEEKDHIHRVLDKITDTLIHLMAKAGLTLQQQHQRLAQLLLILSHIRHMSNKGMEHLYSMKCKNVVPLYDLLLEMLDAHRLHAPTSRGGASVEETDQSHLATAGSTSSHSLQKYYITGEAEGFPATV

C[C@]12CC[C@@H]3c4ccc(O)cc4CC[C@H]3[C@@H]1[C@@H](O)[C@@H](O)[C@@H]2O [E4, 1,3,5 (10)-estratrien-3,15α,16α,17β-tetrol]
Ki (human ERα): 4.9 nM | uterotrophic activity (uterus): very weak uterotrophic activity | relative binding affinity, of 17β-estradiol (100%) [1]: 0.3% | uterotrophic activity (immature rat uterus; 1979): very weak uterotrophic activity | uterotrophic activity (immature rat uterus; 1980): very weak uterotrophic activity | agonistic potency in in vitro cell proliferation relative to 17β-estradiol [2]: 2% | relative binding affinity, of 17β-estradiol (100%) [3]: 0.5% | relative binding constant compared to 17β-estradiol (100%) [4]; 1976: 6.25% | relative binding to estrogen receptors, of 17β-estradiol [4]; 1978: 1.5% | potency in uterine vasodilation, times less potent than estriol and 17β-estradiol (uterine vasodilation): 15 to 30 times | excretion ([5]; urine): rapidly and completely excreted in urine as the glucosiduronate | metabolism [5]: virtually no metabolism except for conjugation took place | half-life [6]: 2 to 3 h | Ki (human ERβ): 19 nM
